Results reported in patent US11168095B2, “ASK1 inhibiting agents” (BIOGEN MA INC., priority 2017, dated 2021).
Read-outs that look alike come from different tables or passages of the source. Each block holds one compound with its values, some of them ahead of it.

How the values were obtained:
ASK1/MAP3K5 = ASK1/MAP3K5 (Homo sapiens (Human), UniProt Q99683); assay: ASK1/MAP3K5 assay by Reaction Biology Corp.; type: biochemical
Procedure: ASK1/MAP3K5 was used as the protein kinase and 20 μM of myelin basic protein (MBP) and 10 μM ATP were used as the substrate.

[1] = target: ASK1 T838 auto phosphorylation in HEK-293T cells (Homo sapiens (Human), UniProt Q99683); assay: ASK1 (AUTO PHOS T838) assay, MSD format; type: cell-based; settings: HEK 293T cells transfected with ASK1-V5 full length plasmid, compounds 1 hr at 37° C.; read-out: IC50
Chain of ASK1 T838 auto phosphorylation in HEK-293T cells (Q99683 whole entry): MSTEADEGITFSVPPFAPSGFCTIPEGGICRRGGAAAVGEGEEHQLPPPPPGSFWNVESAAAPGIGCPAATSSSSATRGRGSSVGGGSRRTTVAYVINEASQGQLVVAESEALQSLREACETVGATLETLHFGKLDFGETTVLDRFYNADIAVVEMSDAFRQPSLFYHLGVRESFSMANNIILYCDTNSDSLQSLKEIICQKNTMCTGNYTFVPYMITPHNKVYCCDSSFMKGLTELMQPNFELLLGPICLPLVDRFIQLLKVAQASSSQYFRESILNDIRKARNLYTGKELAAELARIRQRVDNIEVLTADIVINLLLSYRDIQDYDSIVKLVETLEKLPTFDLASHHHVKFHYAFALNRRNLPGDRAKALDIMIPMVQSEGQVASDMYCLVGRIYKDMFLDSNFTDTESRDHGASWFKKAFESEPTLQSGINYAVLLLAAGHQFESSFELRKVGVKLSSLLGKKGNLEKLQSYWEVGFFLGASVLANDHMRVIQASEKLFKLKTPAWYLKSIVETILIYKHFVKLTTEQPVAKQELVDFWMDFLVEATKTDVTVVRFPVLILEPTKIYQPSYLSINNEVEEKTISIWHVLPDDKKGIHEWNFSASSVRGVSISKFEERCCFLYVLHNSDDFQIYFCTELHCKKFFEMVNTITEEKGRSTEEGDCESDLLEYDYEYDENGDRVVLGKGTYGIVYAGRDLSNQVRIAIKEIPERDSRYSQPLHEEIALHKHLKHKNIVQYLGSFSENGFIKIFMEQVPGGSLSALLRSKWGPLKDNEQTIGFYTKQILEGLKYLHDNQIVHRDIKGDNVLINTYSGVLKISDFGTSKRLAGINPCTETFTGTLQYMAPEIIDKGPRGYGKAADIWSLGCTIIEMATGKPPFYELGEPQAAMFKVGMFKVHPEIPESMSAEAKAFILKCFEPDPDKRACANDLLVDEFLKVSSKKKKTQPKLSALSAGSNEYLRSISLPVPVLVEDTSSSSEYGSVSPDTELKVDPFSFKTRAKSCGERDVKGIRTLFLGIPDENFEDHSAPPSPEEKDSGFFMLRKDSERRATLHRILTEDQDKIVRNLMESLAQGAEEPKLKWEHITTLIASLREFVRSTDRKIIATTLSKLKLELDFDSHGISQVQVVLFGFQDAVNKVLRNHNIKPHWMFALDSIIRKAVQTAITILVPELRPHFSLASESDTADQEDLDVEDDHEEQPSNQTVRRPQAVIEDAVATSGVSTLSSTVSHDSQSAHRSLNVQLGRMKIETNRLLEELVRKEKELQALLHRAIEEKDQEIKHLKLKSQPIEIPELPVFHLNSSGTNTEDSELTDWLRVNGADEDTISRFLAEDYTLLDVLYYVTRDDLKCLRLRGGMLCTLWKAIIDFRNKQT

[2] = 20 μM myelin basic protein (MBP), 10 μM ATP

Chain of ASK1/MAP3K5 (Q99683 whole entry): as above

Compound: CN(C)CCOc1cc2c(cc1F)OCCCCn1cnnc1-c1cccc(n1)NC2=O [Example 76, 5^5-(2-(Dimethylamino)ethoxy)-5^4-fluoro-1^4H-6-oxa-3-aza-2(2,6)-pyridina-1(3,4)-triazola-5(1,2)-benzenacyclodecaphan-4-one]
IC50 (ASK1/MAP3K5): < 0.1 µM | IC50 [1]: < 1 µM

Compound: C[C@H]1CCCOc2cc(F)c(OCCN(C)C)cc2C(=O)Nc2cccc(n2)-c2nncn21 [Example 116, (S)-5^5-(2-(Dimethylamino)ethoxy)-5^4-fluoro-10-methyl-1^4H-6-oxa-3-aza-2(2,6)-pyridina-1(3,4)-triazola-5(1,2)-benzenacyclodecaphan-4-one]
IC50 (ASK1/MAP3K5): < 0.1 µM | IC50 [1]: < 1 µM

Compound: CN1CC=C(c2ccc3c(c2)OCCCCn2cnnc2-c2cccc(n2)NC3=O)CC1 [Example 78, 5^4-(1-Methyl-1,2,3,6-tetrahydropyridin-4-yl)-1^4H-6-oxa-3-aza-2(2,6)-pyridina-1(3,4)-triazola-5(1,2)-benzenacyclodecaphan-4-one]
IC50 (ASK1/MAP3K5): < 0.1 µM | IC50 [1]: < 1 µM

Compound: C[C@H]1CCCn2cnnc2-c2cccc(n2)NC(=O)c2cc(C#N)ccc2O1 [Example 150, (S)-7-Methyl-4-oxo-1^4H-6-oxa-3-aza-2(2,6)-pyridina-1(3,4)-triazola-5(1,2)-benzenacyclodecaphane-5^5-carbonitrile]
IC50 (ASK1/MAP3K5; [2]): 0.1 to 1 µM | IC50 [1]: < 1 µM

Compound: CN(C)CCn1cc(-c2cc3c(cc2F)OCC/C=C\Cn2cnnc2-c2cccc(n2)NC3=O)cn1 [Example 179, (Z)-5^5-(1-(2-(Dimethylamino)ethyl)-1H-pyrazol-4-yl)-5^4-fluoro-1^4H-6-oxa-3-aza-2(2,6)-pyridina-1(3,4)-triazola-5(1,2)-benzenacycloundecaphan-9-en-4-one]
IC50 (ASK1/MAP3K5; [2]): < 0.1 µM | IC50 [1]: < 1 µM

Compound: CN1CC=C(c2cc3c(cc2F)OCCCCn2cnnc2-c2cccc(n2)NC3=O)CC1 [Example 69, 5^4-Fluoro-5^5-(1-methyl-1,2,3,6-tetrahydropyridin-4-yl)-1^4H-6-oxa-3-aza-2(2,6)-pyridina-1(3,4)-triazola-5(1,2)-benzenacyclodecaphan-4-one]
IC50 (ASK1/MAP3K5; [2]): < 0.1 µM | IC50 [1]: < 1 µM

Compound: C[C@H]1CCCOc2cc(N3CCN(C)CC3)ccc2C(=O)Nc2cccc(n2)-c2nncn21 [Example 122, (S)-10-Methyl-5^4-(4-methylpiperazin-1-yl)-1^4H-6-oxa-3-aza-2(2,6)-pyridina-1(3,4)-triazola-5(1,2)-benzenacyclodecaphan-4-one]
IC50 (ASK1/MAP3K5; [2]): < 0.1 µM | IC50 [1]: < 1 µM

Compound: C[C@H]1CCCOc2ccc(F)cc2C(=O)Nc2cccc(n2)-c2nncn21 [Example 99, (S)-5^5-Fluoro-10-methyl-1^4H-6-oxa-3-aza-2(2,6)-pyridina-1(3,4)-triazola-5(1,2)-benzenacyclodecaphan-4-one]
IC50 (ASK1/MAP3K5; [2]): < 0.1 µM | IC50 [1]: < 1 µM

Compound: Cc1cn(-c2ccc3c(c2)C(=O)Nc2cccc(n2)-c2nncn2CCC[C@H](C)O3)cn1 [Example 148, (S)-7-Methyl-5^5-(4-methyl-1H-imidazol-1-yl)-1^4H-6-oxa-3-aza-2(2,6)-pyridina-1(3,4)-triazola-5(1,2)-benzenacyclodecaphan-4-one]
IC50 (ASK1/MAP3K5): < 0.1 µM | IC50 [1]: < 1 µM

Compound: Cc1cn(-c2cc3c(cc2F)OCCC[C@H](C)n2cnnc2-c2cccc(n2)NC3=O)cn1 [Example 113, (S)-5^4−Fluoro-10-methyl-5^5-(4-methyl-1H-imidazol-1-yl)-1^4H-6-oxa-3-aza-2(2,6)-pyridina-1(3,4)-triazola-5(1,2)-benzenacyclodecaphan-4-one]
IC50 (ASK1/MAP3K5): < 0.1 µM | IC50 [1]: < 1 µM

Compound: NCc1ccc2c(c1)C(=O)Nc1cccc(n1)-c1nncn1CCCCO2 [Example 47, 5^5-(Aminomethyl)-1^4H-6-oxa-3-aza-2(2,6)-pyridina-1(3,4)-triazola-5(1,2)-benzenacyclodecaphan-4-one]
IC50 (ASK1/MAP3K5; [2]): < 0.1 µM | IC50 [1]: < 1 µM

Compound: C[C@@H]1CCCOc2cc(N3CCN(C)CC3)ccc2C(=O)Nc2cccc(n2)-c2nncn21 [Example 123, (R)-10-Methyl-5^4-(4-methylpiperazin-1-yl)-1^4H-6-oxa-3-aza-2(2,6)-pyridina-1(3,4)-triazola-5(1,2)-benzenacyclodecaphan-4-one]
IC50 (ASK1/MAP3K5; [2]): 1 to 10 µM | IC50 [1]: 1 to 10 µM

Compound: C[C@@H]1CCOc2cc(F)c(Br)cc2C(=O)Nc2cccc(n2)-c2nncn2C1 [Example 125, (R)-5^5-Bromo-5^4-fluoro-9-methyl-1^4H-6-oxa-3-aza-2(2,6)-pyridina-1(3,4)-triazola-5(1,2)-benzenacyclodecaphan-4-one]
IC50 (ASK1/MAP3K5; [2]): 0.1 to 1 µM | IC50 [1]: 1 to 10 µM

Compound: CN1CCn2ncc(-c3cc4c(cc3F)OCCCCn3cnnc3-c3cccc(n3)NC4=O)c2C1 [Example 65, 5^4-Fluoro-5^5-(5-methyl-4,5,6,7-tetrahydropyrazolo[1,5-a]pyrazin-3-yl)-1^4H-6-oxa-3-aza-2(2,6)-pyridina-1(3,4)-triazola-5(1,2)-benzenacyclodecaphan-4-one]
IC50 (ASK1/MAP3K5; [2]): < 0.1 µM | IC50 [1]: < 1 µM

Now from value to compound:

IC50 (ASK1/MAP3K5; [2]): < 0.1 µM | IC50 [1]: < 1 µM
Compound: C[C@H]1CCCOc2cc(F)c(-c3cncc(C(F)(F)F)c3)cc2C(=O)Nc2cccc(n2)-c2nncn21 [Example 111, (S)-5^4-Fluoro-10-methyl-5^5-(5-(trifluoromethyl)pyridin-3-yl)-1^4H-6-oxa-3-aza-2(2,6)-pyridina-1(3,4)-triazola-5(1,2)-benzenacyclodecaphan-4-one]

IC50 (ASK1/MAP3K5; [2]): < 0.1 µM | IC50 [1]: < 1 µM
Compound: O=C1Nc2cccc(n2)-c2nncn2CCCCOc2cc(F)c(-c3ccncc3)cc21 [Example 52, 5^4-Fluoro-5^5-(pyridin-4-yl)-1^4H-6-oxa-3-aza-2(2,6)-pyridina-1(3,4)-triazola-5(1,2)-benzenacyclodecaphan-4-one]

IC50 (ASK1/MAP3K5; [2]): < 0.1 µM | IC50 [1]: < 1 µM
Compound: O=C1Nc2cccc(n2)-c2nncn2CCCCOc2cc(F)c(-c3ccnnc3)cc21 [Example 61, 5^4-Fluoro-5^5-(pyridazin-4-yl)-1^4H-6-oxa-3-aza-2(2,6)-pyridina-1(3,4)-triazola-5(1,2)-benzenacyclodecaphan-4-one]

IC50 (ASK1/MAP3K5; [2]): < 0.1 µM | IC50 [1]: 1 to 10 µM
Compound: C[C@@H]1CCCn2cnnc2-c2cccc(n2)NC(=O)c2cc(Br)ccc2O1 [Example 137, (R)-5^5-Bromo-7-methyl-1^4H-6-oxa-3-aza-2(2,6)-pyridina-1(3,4)-triazola-5(1,2)-benzenacyclodecaphan-4-one]

IC50 (ASK1/MAP3K5; [2]): < 0.1 µM | IC50 [1]: < 1 µM
Compound: C[C@H]1CCCOc2cc(F)c(-c3cnn(C)c3)cc2C(=O)Nc2cccc(n2)-c2nncn21 [Example 114, (S)-5^4-Fluoro-10-methyl-5^5-(1-methyl-1H-pyrazol-4-yl)-1^4H-6-oxa-3-aza-2(2,6)-pyridina-1(3,4)-triazola-5(1,2)-benzenacyclodecaphan-4-one]

IC50 (ASK1/MAP3K5; [2]): < 0.1 µM | IC50 [1]: < 1 µM
Compound: COC(C)(C)c1ccc2c(c1)C(=O)Nc1cccc(n1)-c1nncn1CCCCO2 [Example 50, 5^5-(2-Methoxypropan-2-yl)-1^4H-6-oxa-3-aza-2(2,6)-pyridina-1(3,4)-triazola-5(1,2)-benzenacyclodecaphan-4-one]

IC50 (ASK1/MAP3K5; [2]): < 0.1 µM | IC50 [1]: < 1 µM
Compound: C[C@H]1CCCn2cnnc2-c2cccc(n2)NC(=O)c2cc(-c3ccncc3)ccc2O1 [Example 144, (S)-7-Methyl-5^5-(pyridin-4-yl)-1^4H-6-oxa-3-aza-2(2,6)-pyridina-1(3,4)-triazola-5(1,2)-benzenacyclodecaphan-4-one]

IC50 (ASK1/MAP3K5; [2]): < 0.1 µM | IC50 [1]: < 1 µM
Compound: COCCOc1cc2c(cc1F)OCCCCn1cnnc1-c1cccc(n1)NC2=O [Example 75, 5^4-Fluoro-5^5-(2-methoxyethoxy)-1^4H-6-oxa-3-aza-2(2,6)-pyridina-1(3,4)-triazola-5(1,2)-benzenacyclodecaphan-4-one]

IC50 (ASK1/MAP3K5; [2]): < 0.1 µM | IC50 [1]: < 1 µM
Compound: (S)-5^4-Bromo-10-methyl-1^4H-6-oxa-3-aza-2(2,6)-pyridina-1(3,4)-triazola-5(1,2)-benzenacyclodecaphan-4-one [Example 120]

IC50 (ASK1/MAP3K5; [2]): < 0.1 µM | IC50 [1]: < 1 µM
Compound: CN1CCC(c2cc3c(cc2F)OCCCCn2cnnc2-c2cccc(n2)NC3=O)CC1 [Example 70, 5^4-Fluoro-5^5-(1-methylpiperidin-4-yl)-1^4H-6-oxa-3-aza-2(2,6)-pyridina-1(3,4)-triazola-5(1,2)-benzenacyclodecaphan-4-one]

IC50 (ASK1/MAP3K5; [2]): < 0.1 µM | IC50 [1]: < 1 µM
Compound: O=C1Nc2cccc(n2)-c2nncn2CCCCOc2cc(F)c(C3CCOCC3)cc21 [Example 68, 5^4-Fluoro-5^5-(tetrahydro-2H-pyran-4-yl)-1^4H-6-oxa-3-aza-2(2,6)-pyridina-1(3,4)-triazola-5(1,2)-benzenacyclodecaphan-4-one]

IC50 (ASK1/MAP3K5; [2]): < 0.1 µM | IC50 [1]: < 1 µM
Compound: CN1CCC(c2cc3c(cc2F)C(=O)Nc2cccc(n2)-c2nncn2CCCCO3)CC1 [Example 86, 5^5-Fluoro-5^4-(1-methylpiperidin-4-yl)-1^4H-6-oxa-3-aza-2(2,6)-pyridina-1(3,4)-triazola-5(1,2)-benzenacyclodecaphan-4-one]

IC50 (ASK1/MAP3K5; [2]): < 0.1 µM | IC50 [1]: < 1 µM
Compound: CN1CCC(c2ccc3c(c2)OCCCCn2cnnc2-c2cccc(n2)NC3=O)CC1 [Example 79, 5^4-(1-Methylpiperidin-4-yl)-1^4H-6-oxa-3-aza-2(2,6)-pyridina-1(3,4)-triazola-5(1,2)-benzenacyclodecaphan-4-one]

IC50 (ASK1/MAP3K5; [2]): < 0.1 µM | IC50 [1]: < 1 µM
Compound: COCCOc1cc2c(cc1F)OCC[C@H](C)Cn1cnnc1-c1cccc(n1)NC2=O [Example 135, (S)-5^4-Fluoro-5^5-(2-methoxyethoxy)-9-methyl-1^4H-6-oxa-3-aza-2(2,6)-pyridina-1(3,4)-triazola-5(1,2)-benzenacyclodecaphan-4-one]

IC50 (ASK1/MAP3K5; [2]): < 0.1 µM | IC50 [1]: < 1 µM
Compound: C[C@H]1CCCn2cnnc2-c2cccc(n2)NC(=O)c2cc(Br)ccc2O1 [Example 136, (S)-5^5-Bromo-7-methyl-1^4H-6-oxa-3-aza-2(2,6)-pyridina-1(3,4)-triazola-5(1,2)-benzenacyclodecaphan-4-one]
